In patent US12492173B2, “Herbicidal substituted N-tetrazolyl aryl carboxamides” (Bayer Aktiengesellschaft, priority 2019, dated 2025):

Assays:
Type in all cases: in vivo
Polygonum convolvulus = test: Pre-emergence herbicidal action, POLCO; conditions: for herbicidal activity POLCO / herbicidal action POLCO: dosage 320 g/ha; for herbicidal activity POLCO: scored visually after 3 weeks vs untreated controls (100% = plants have died)
Outline: (§1)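 Weed seeds sown in sandy loam and covered; WP or EC formulations applied to soil surface as aqueous suspension or emulsion at 600 to 800 l/ha with 0.2% wetting agent. Greenhouse-grown, with damage scored visually after 3 weeks versus untreated controls (0% = like control, 100% = plants dead).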

Abutilon theophrasti [1] = test: Post-emergence herbicidal action, ABUTH; parameters: key: % herbicidal action vs untreated; 100 = plants died, 0 = like control
Outline: (§2)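 Foliar application at the one-leaf stage of greenhouse-grown plants in sandy loam; compound applied as WP or EC in 600–800 l/ha water containing 0.2% wetting agent. Scores are visual percentages (0% like control, 100% plants died) taken after roughly 3 weeks.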

Stellaria media = test: Post-emergence herbicidal action, STEME; parameters: key: % herbicidal action vs untreated; 100 = plants died, 0 = like control
Outline: as §2

Pharbitis purpurea = test: Post-emergence herbicidal action, PHBPU
Outline: as §2

Matricaria inodora = test: Post-emergence herbicidal action, MATIN; parameters: key: % herbicidal action vs untreated; 100 = plants died, 0 = like control
Outline: as §2

Abutilon theophrasti [2] = test: Pre-emergence herbicidal action, ABUTH; parameters: key to Herbicidal action against ABUTH: % activity: 100 = plants have died, 0 = like control plants; conditions: for herbicidal activity ABUTH / herbicidal action ABUTH: dosage 320 g/ha; for herbicidal activity ABUTH: scored visually after 3 weeks vs untreated controls (100% = plants have died); for Herbicidal action against ABUTH: comparative experiment
Outline: as §1

Setaria viridis = test: Post-emergence herbicidal action, SETVI; parameters: key: % herbicidal action vs untreated; 100 = plants died, 0 = like control
Outline: as §2

[3] = comparative experiment, post-emergence, 5 g of a.i./ha
[4] = comparative experiment, post-emergence, 20 g of a.i./ha

| SMILES | herbicidal activity POLCO (Polygonum convolvulus) [%] | herbicidal action ABUTH (Abutilon theophrasti [1]; Dosage 80 g/ha) | herbicidal action STEME (Stellaria media; Dosage 80 g/ha) | herbicidal action PHBPU (Pharbitis purpurea; Dosage 80 g/ha) | herbicidal action MATIN (Matricaria inodora; Dosage 80 g/ha) | herbicidal activity ABUTH (Abutilon theophrasti [2]) [%] | herbicidal action SETVI (Setaria viridis; post-emergence, dosage 80 g/ha) [%] | herbicidal action ABUTH (Abutilon theophrasti [1]; post-emergence, dosage 80 g/ha) [%] | herbicidal action STEME (Stellaria media; post-emergence, dosage 80 g/ha) [%] | herbicidal action PHBPU (Pharbitis purpurea; post-emergence, dosage 80 g/ha) [%] | herbicidal action MATIN (Matricaria inodora; post-emergence, dosage 80 g/ha) [%] | herbicidal action SETVI (Setaria viridis; Dosage 80 g/ha) | also measured |
| --- | --- | --- | --- | --- | --- | --- | --- | --- | --- | --- | --- | --- | --- |
| CCCn1nnnc1NC(=O)c1ccc(C(F)F)c(CS(C)(=O)=O)c1SC [Example 3-172] | 100 | 100 | 100 | 100 | 90 | 100 | – | – | – | – | – | – | – |
| CCn1nnnc1NC(=O)c1ccc(C(F)(F)F)c(C[S+]([O-])CC)c1Br (stereo not drawn) [Example 2-384] | 90 | – | – | – | – | 100 | 90 | 100 | 100 | 90 | 100 | – | – |
| CCSCc1c(C(F)(F)F)ccc(C(=O)Nc2nnnn2CC)c1C [Example 2-86] | – | – | – | – | – | – | 90 | 80 | 100 | 90 | 100 | – | herbicidal action POLCO (Polygonum convolvulus): 80%; herbicidal action ABUTH (Abutilon theophrasti [2]): 100% |
| Cn1nnnc1NC(=O)c1ccc(I)c(C[S+](C)[O-])c1Cl (racemic) [Example 1-363] | 90 | – | – | – | – | 100 | 100 | 100 | 100 | 90 | 100 | – | Herbicidal action against ABUTH (Abutilon theophrasti [2]; 20 g of a.i./ha): 100 |
| CSc1c(C(=O)Nc2nnnn2C)ccc(C(F)F)c1C[S+](C)[O-] (stereo not drawn) [Example 1-171] | 100 | 100 | 100 | 90 | 90 | 100 | – | – | – | – | – | 100 | – |
| CCn1nnnc1NC(=O)c1ccc(C(F)(F)F)c(CS(=O)(=O)CC)c1Br [Example 2-385] | 100 | – | – | – | – | 100 | 90 | 100 | 100 | 80 | 100 | – | – |
| CCSCc1c(C(F)(F)F)ccc(C(=O)Nc2nnnn2C)c1SCC [Example 1-182] | 100 | 90 | 100 | 90 | 90 | 100 | – | – | – | – | – | 90 | Herbicidal action against SETVI (Setaria viridis; [3]): 70; Herbicidal action against ABUTH (Abutilon theophrasti [1]; [3]): 70; Herbicidal action against STEME (Stellaria media; [3]): 90 |
| COCC[S+]([O-])Cc1c(C(F)(F)F)ccc(C(=O)Nc2nnnn2C)c1Cl (racemic) [Example 1-306] | 80 | 90 | 90 | 90 | 90 | 100 | – | – | – | – | – | 90 | – |
| Cn1nnnc1NC(=O)c1ccc(C(F)F)c(CS(C)(=O)=O)c1Cl [Example 1-322] | 100 | – | – | – | – | 100 | 100 | 100 | 100 | 80 | 80 | – | – |
| CCn1nnnc1NC(=O)c1ccc(C(F)(F)F)c(CSC)c1Cl [Example 2-296] | 100 | – | – | – | – | 100 | 90 | 100 | 100 | 90 | 90 | – | – |
| CCCn1nnnc1NC(=O)c1ccc(C(F)F)c(C[S+](C)[O-])c1SC (stereo not drawn) [Example 3-171] | 90 | 100 | 100 | 90 | 90 | 100 | – | – | – | – | – | – | – |
| CCS(=O)(=O)Cc1c(C(F)(F)F)ccc(C(=O)Nc2nnnn2C)c1Br [Example 1-385] | 90 | – | – | – | – | 100 | 100 | 100 | 100 | 90 | 90 | – | Herbicidal action against SETVI (Setaria viridis; [4]): 90; Herbicidal action against STEME (Stellaria media; [4]): 100; Herbicidal action against PHBPU (Pharbitis purpurea; [4]): 80; Herbicidal action against MATIN (Matricaria inodora; [4]): 90; Herbicidal action against ABUTH (Abutilon theophrasti [2]; 80 g of a.i./ha): 100 |
| Cn1nnnc1NC(=O)c1ccc(C(F)(F)F)c(C[S+]([O-])C2CC2)c1Cl (racemic) [Example 1-303] | 100 | – | – | – | – | 100 | 100 | 100 | 100 | 100 | 100 | – | – |
| Cn1nnnc1NC(=O)c1ccc(C(F)(F)F)c(CS(=O)(=O)C2CC2)c1Cl [Example 1-304] | 100 | – | – | – | – | 100 | 90 | 100 | 100 | 100 | 90 | – | – |
| Cn1nnnc1NC(=O)c1ccc(I)c(CS(C)(=O)=O)c1Cl [Example 1-364] | 100 | 100 | 100 | – | 100 | 100 | – | – | – | – | – | 100 | Herbicidal action against POLCO (Polygonum convolvulus; comparative experiment, 20 g of a.i./ha): 90 |
| CCn1nnnc1NC(=O)c1ccc(C(F)F)c(CS(C)(=O)=O)c1Cl [Example 2-322] | 100 | – | – | – | – | 100 | 100 | 100 | 100 | 90 | 90 | – | – |
| CCCn1nnnc1NC(=O)c1ccc(C(F)(F)F)c(C[S+]([O-])CC)c1Br (stereo not drawn) [Example 3-384] | 80 | 100 | 100 | 80 | 100 | 100 | – | – | – | – | – | 100 | – |
| CCCn1nnnc1NC(=O)c1ccc(C(F)(F)F)c(CS(C)(=O)=O)c1SC [Example 3-163] | 80 | 100 | 100 | 90 | 90 | 100 | – | – | – | – | – | 90 | – |
| CCn1nnnc1NC(=O)c1ccc(C(F)(F)F)c(C[S+]([O-])CC2CC2)c1Cl (stereo not drawn) [Example 2-315] | 90 | 100 | 100 | 100 | 90 | 100 | – | – | – | – | – | 100 | – |
| COc1c(C(=O)Nc2nnnn2C)ccc(Cl)c1CSC [Example 1-570] | – | – | – | – | – | – | – | – | – | – | – | – | herbicidal action POLCO (Polygonum convolvulus): 80%; Herbicidal action against SETVI (Setaria viridis; post-emergence, dosage 80 g/ha): 80; Herbicidal action against ABUTH (Abutilon theophrasti [1]; post-emergence, dosage 80 g/ha): 90; Herbicidal action against STEME (Stellaria media; post-emergence, dosage 80 g/ha): 80; Herbicidal action against PHBPU (Pharbitis purpurea; post-emergence, dosage 80 g/ha): 90; Herbicidal action against MATIN (Matricaria inodora; post-emergence, dosage 80 g/ha): 90; herbicidal action ABUTH (Abutilon theophrasti [2]): 90% |
| CCCn1nnnc1NC(=O)c1ccc(C(F)(F)F)c(C[S+](C)[O-])c1OC (stereo not drawn) [Example 3-135] | – | 100 | 100 | 90 | 100 | – | – | – | – | – | – | 100 | herbicidal action POLCO (Polygonum convolvulus): 90%; herbicidal action ABUTH (Abutilon theophrasti [2]): 100% |
| Cn1nnnc1NC(=O)c1ccc(C(F)(F)F)c(CS(=O)(=O)CC2CC2)c1Cl [Example 1-316] | 100 | 100 | 100 | 90 | 90 | 100 | – | – | – | – | – | 90 | – |
| CCCn1nnnc1NC(=O)c1ccc(C(F)F)c(CSC)c1SC [Example 3-170] | 90 | 100 | 100 | 90 | 100 | 100 | – | – | – | – | – | – | – |
| CCCn1nnnc1NC(=O)c1ccc(C(F)F)c(CS(=O)(=O)CC)c1Cl [Example 3-325] | 100 | 100 | 100 | 90 | – | 100 | – | – | – | – | – | 100 | – |
| CSCc1c(C(F)F)ccc(C(=O)Nc2nnnn2C)c1Cl [Example 1-320] | 90 | 100 | 100 | 90 | – | 100 | – | – | – | – | – | 100 | Herbicidal action against SETVI (Setaria viridis; [3]): 100; Herbicidal action against ABUTH (Abutilon theophrasti [1]; [3]): 100; Herbicidal action against STEME (Stellaria media; [3]): 100; Herbicidal action against ABUTH (Abutilon theophrasti [2]; 20 g of a.i./ha): 90 |
